Data: patent EP1473301A2, “Betulinol derivatives” (CORNELL RESEARCH FOUNDATION, INC., priority 1997, dated 1998)

Legend:
[1] = Betulinol biacetate solubility in organic solvents; assay type: physicochemical
Procedure: Studies of betulinol biacetate solubility were conducted in order to determine the appropriate solvent for product crystallization and purification.

EHRLICH-LETTRE CARCINOMA = assay: Anti-carcinogenic activity in mice with transplanted Ehrlich tumor (average length of life); assay type: in vivo, white mice; conditions: for ALL (Average length of life): 17 Mice/Group, control 10.6; for % of control (ALL): control = 100
Procedure: (§1) The anti-carcinogenic activity of betulinol biacetate and betulonic aldehyde was assessed using 117-120 gram white rats implanted with […] and 21-23 gram white mice with artificially transplanted Ehrlich's tumor.
(§2) Solutions of 2.5% betulonic aldehyde and 0.05% betulinol biacetate were prepared in 10% polyvinylpyrrolidone containing Tween-80 (a sorbitan mono-9-octadecenate poly(oxy-1,2-ethanediyl)) stabilizer.
(§3) Mice were injected with 0.1-0.2 ml of either betulinol biacetate or betulonic aldehyde solution daily, starting 24 hours after transplantation, for the following 5 days. Rats were injected with 1.2 ml of either betulinol biacetate or betulonic aldehyde solution daily, starting 24 hours after implantation, for the following 5 days. Animals in control groups received the same amount of a 10% solution of polyvinylpyrrolidone.
(§4) The anti-tumor effect of betulinol acetate or betulonic aldehyde was determined by measuring the volume of the tumor on the 10th day after implantation. An average length of life ("ALL") was calculated for each of the deceased animals. In addition, the percentage of cured rats was also determined.
(§5) The volume of the tumor was measured and calculated as a multiple of the quadrate of its similar diameter by the greater diameter. Thus, the effect was expressed as a ratio ("E/C"), in percent, of the tumor volume in rats treated with betulinol acetate or betulonic aldehyde ("E") and the tumor volume in control rats ("C"). The effect of betulinol acetate or betulonic aldehyde on ALL was evaluated the same way.
(§6) A total of 155 mice and 142 rats were used for these experiments.

[2] = test system: WALKER-CARCINOMA (carcinosarcoma); assay: Anti-carcinogenic activity in rats implanted with Walker carcinoma (tumor volume, average length of life, % cured); assay type: in vivo, white rats
Procedure: as §1, §2, §3, §4, §5, §6

[3] = Group 1, Dose/day 206.7 mg/kg body weight
[4] = Group 2, Dose/day 197.0 mg/kg body weight
[5] = Group 3, Dose/day 98.0 mg/kg body weight

C=C(C)[C@@H]1CC[C@]2(COC(C)=O)CC[C@]3(C)[C@H](CC[C@@H]4[C@@]5(C)CC[C@H](OC(C)=O)C(C)(C)[C@@H]5CC[C@]43C)[C@@H]12 [Betulinol diacetate, Betulinol Biacetate]
BBA Mass Content, %, at 20 °C ([1]; Acetone): 32 mass %
BBA Mass Content, %, at T (°C) ([1]; Acetone, 56 °C): 68 mass %
BBA Mass Content, %, at 20 °C ([1]; Benzene): 100 mass %
BBA Mass Content, %, at 20 °C ([1]; Butanol): 15 mass %
BBA Mass Content, %, at T (°C) ([1]; Butanol, 95 °C): 100 mass %
BBA Mass Content, %, at 20 °C ([1]; Chloroform): 100 mass %
BBA Mass Content, %, at 20 °C ([1]; Dimethylsulfoxide): 30 mass %
BBA Mass Content, %, at T (°C) ([1]; Dimethylsulfoxide, 189 °C): 100 mass %
BBA Mass Content, %, at 20 °C ([1]; Dioxane): 30 mass %
BBA Mass Content, %, at T (°C) ([1]; Dioxane, 101 °C): 100 mass %
BBA Mass Content, %, at 20 °C ([1]; Ethanol): 2.8 mass %
BBA Mass Content, %, at T (°C) ([1]; Ethanol, 78 °C): 18 mass %
BBA Mass Content, %, at 20 °C ([1]; Ethylacetate): 53 mass %
BBA Mass Content, %, at T (°C) ([1]; Ethylacetate, 77 °C): 100 mass %
BBA Mass Content, %, at 20 °C ([1]; Hexane): 15 mass %
BBA Mass Content, %, at T (°C) ([1]; Hexane, 69 °C): 52 mass %
BBA Mass Content, %, at 20 °C ([1]; Isopropanol): 6.5 mass %
BBA Mass Content, %, at T (°C) ([1]; Isopropanol, 82 °C): 72 mass %
BBA Mass Content, %, at 20 °C ([1]; Toluene): 100 mass %

C=C(C)[C@@H]1CC[C@]2(C=O)CC[C@]3(C)[C@H](CC[C@@H]4[C@@]5(C)CCC(=O)C(C)(C)[C@@H]5CC[C@]43C)[C@@H]12 [Betulon aldehyde, Betulonic Aldehyde]
ALL (Average length of life) (EHRLICH-LETTRE CARCINOMA; [3]): 12.5 days
% of control (ALL) (EHRLICH-LETTRE CARCINOMA; [3]): 118.0%
ALL (Average length of life) (EHRLICH-LETTRE CARCINOMA; [4]): 10.5 days
% of control (ALL) (EHRLICH-LETTRE CARCINOMA; [4]): 99.1%
ALL (Average length of life) (EHRLICH-LETTRE CARCINOMA; [5]): 11.0 days
% of control (ALL) (EHRLICH-LETTRE CARCINOMA; [5]): 103.7%
rate of the tumor growth inhibited (of the control group) ([2]; 10th day, tumor volume versus control, dose and species not stated in the sentence (method speaks of rats)): 31.2%
ALL (Average length of life) ([2]; rats, Group 1, Dose/day 102.6 mg/kg body weight, injected daily for 5 days, 28 Rats/Group, control 21.7): 26.5 days
% of control (ALL) ([2]; rats, Group 1, Dose/day 102.6 mg/kg body weight, control = 100): 122.1%
% cured ([2]; rats, Group 1, Dose/day 102.6 mg/kg body weight, cured rats lived over two months after implantation): 33.0%
